From US20240368583A1, “DNA CONSTRUCTS, RECOMBINANT CELLS COMPRISING THEREOF, BACTERIAL PROBES, METHODS FOR THEIR PREPARATION, AND METHOD OF USING THEREOF” (YEDA RESEARCH AND DEVELOPMENT CO. LTD., priority 2019, published 2024)

Key:
[1] = tested on: MDA-MB-435 cells; experiment: Fluorescence imaging of bacteria-cell interaction, MDA-MB-435 cells; assay type: cell-based, human; conditions: bacteria linked to duplex with Compound 105; 20 min, washed
Method: (§1) Cells (15,000 cells/well) were seeded onto glass bottom culture dishes (MatTek) and allowed to adhere overnight. MDA-MB-435 cells were seeded in MEM medium supplemented with 5% charcoal dextran-stripped calf serum, 1% non-essential amino acids, 1% L-glutamine, and 1% penicillin/streptomycin. KB cells were plated in folate-depleted RPMI supplemented with 10% FBS and 1% penicillin/streptomycin while LNCaP were maintained in RPMI, 10% FBS, 1% L-glutamine, and 1% penicillin/streptomycin. Following day, medium was removed, rinsed thrice with PBS and then the cells were incubated with B-probes 1-4 (prepared by incubating His-bacteria with duplexes 1-4 at 500 nM concentration for 1 h at 25° C. followed by washing with PBS buffer) at 37° C., 5% CO2 in incubator for 20 min. Finally, the excess/unbound bacteria were gently washed off with PBS containing Ca^+2 and Mg^+2 (200 μL×3) and the cells were imaged using a fluorescence microscope with 60× objective lens. […]
(§2) MDA-MB-435 cells, LNCaP and KB cells were maintained in their respective media as mentioned in the previous section. […] After 20 minutes, the unbound bacteria were gently washed off with PBS containing Ca^+2 and Mg^+2 (200 μL×3) and the cells were imaged using a fluorescence microscope and a 60× objective lens.

[2] = tested on: E. coli expressing His-OmpC; experiment: Decorating bacteria with the oligonucleotides, fluorescence imaging; assay type: cell-based
Method: (§3) E. coli K-12 strain KRX (Promega) was used for protein expression. Transformed bacteria with the different OmpC constructs (OmpC or His-OmpC) were cultured to saturation in LB medium supplemented with 100 μg/ml of ampicillin at 30° C. 40 μl of the pre-cultured cells were then diluted into 4 ml of fresh LB medium supplemented with ampicillin, and incubated until the OD600 reaches ˜0.6. Protein expression was then induced by the addition of 0.1% Rhamnose and 20 μM isopropyl-b-D-1-thiogalactopyranoside (IPTG) and cultures were allowed to grow at 30° C. for 18 h. Then, the bacterial cells were harvested by centrifugation at 6,000 g for 4 min.
The bacterial cells (OmpC or His-OmpC) were collected by centrifugation at 6000 g for 4 min. The pellet was washed twice with PBS×1 buffer and resuspended in the same buffer to an OD600 of 0.3. […] Then the bacterial sample were washed twice with PBS, resuspended in 100 μl PBS and placed on a glass-bottom dish (P35G-1.5-14-C; MatTek) precoated with poly-1-lysine (Sigma Aldrich) and left to adhere for 1 h. Finally, the wells were washed vigorously with PBS three times and imaged using an Olympus IX51 fluorescent microscope. The samples were imaged using 60× or 100× objective lenses.

[3] = tested on: Native bacteria (that lack His-tag); experiment: Decorating bacteria with the oligonucleotides, fluorescence imaging (native bacteria control); assay type: cell-based, E. coli; conditions: native bacteria lacking His-OmpC; 500 nM with Ni (II)
Method: as §3
The bacterial cells (OmpC or His-OmpC) were collected by centrifugation at 6000 g for 4 min. The pellet was washed twice with PBS×1 buffer and resuspended in the same buffer to an OD600 of 0.3. To a 100 μl sample of the bacteria suspension, a preincubated sample of DNA (500 nM) and NiCl2 (2.5 μM) was added, and the cells were incubated at room temperature for 1 h. Then the bacterial sample were washed twice with PBS, resuspended in 100 μl PBS and placed on a glass-bottom dish (P35G-1.5-14-C; MatTek) precoated with poly-1-lysine (Sigma Aldrich) and left to adhere for 1 h. Finally, the wells were washed vigorously with PBS three times and imaged using an Olympus IX51 fluorescent microscope. The samples were imaged using 60× or 100× objective lenses.

[4] = tested on: E. coli expressing His-OmpC; experiment: Treatment of the modified bacteria with EDTA; assay type: cell-based; conditions: 10 mM EDTA, 1 h
Method: Bacterial samples decorated with Compound 100 were incubated with various concentrations of EDTA (0, 5, 10 mM) for 1 h. Cells were then collected (6,000 g, 4 min) and washed twice with […] PBS buffer. Cells were resuspended in 100 μl PBS buffer and added to poly-1-lysine-coated slides for imaging.

[5] = tested on: LNCaP cells; experiment: Fluorescence imaging of bacteria-cell interaction, LNCaP cells; assay type: cell-based, human; conditions: bacteria linked to duplex with Compound 105; 20 min, washed
Method: as §1, §2

[6] = tested on: His-tagged bacteria; experiment: Super-resolution (STORM) microscopy of decorated bacteria; assay type: cell-based, E. coli; conditions: duplex with ODN-1; transverse cut
Method: Super-resolution images were collected on a Vutara SR200 STORM (Bruker) microscope based on the single-molecule localization biplane technology. His-tagged bacteria was decorated with ODN-1:Compound 201 duplex according to the procedure described in above. The bacteria were imaged using 647 nm excitation laser and 405 nm activation laser in an imaging buffer composed of 5 mM cysteamine, oxygen scavengers (7 μM glucose oxidase and 56 nM catalase) in 50 mM Tris, 10 mM NaCl and 10% glucose at pH 8.0. Images were recorded using a 60×NA 1.2 water immersion objective (Olympus) and Evolve 512 EMCCD camera (Photometrics) with gain set at 50, frame rate at 50 Hz, and maximal power of 647 and 405 nm lasers set at 6 and 0.05 kW/cm^2, respectively. Total number of frames acquired was 8000. Data was analyzed by the Vutara SRX software.
Methods: Due to the small size of bacteria, super resolution (SR) microscopy was used to visualize E. Coli 's membrane with super resolution (SR). This was achieved by combining ODN-1 with a commercially available ODN-2 (Cy5-ODN-2; Compound 201) bearing a Cy5 dye, which is compatible with stochastic optical reconstruction microscopy (STORM).

[7] = Adhesion of modified bacteria to the solid support; conditions: duplex with ODN-1 on His-tagged bacteria; 15 min; control unmodified bacteria
Method: A solution of (11-mercaptoundecyl)tetra(ethylene glycol)^9 (2 mM in ethanol) were added to the gold coated substrates and incubated for 2 h. After removing the solution, the slides were washed four times with ethanol. Bacteria samples decorated with a duplex consisting of Compound 102 and Compound 207 were washed twice with PBS, resuspended in 100 μl phosphate buffer (pH=3.8), and then incubated on gold surfaces for 15 min. The solution containing bacteria was removed, and the slides were rinsed three times with PBS, and twice with water. Finally, they were imaged using an Olympus IX51 microscope.
Methods: His-tagged bacteria were decorated with a duplex assembled from ODN-1 and HS-ODN-2 (Compound 207), namely, an ODN-2 that is appended with a thiol group. HS is known to have high affinity to gold. In the following step, unmodified His-tagged bacteria and thiol-modified His-tagged bacteria (FIG. 6A) were incubated with a gold substrate that was previously passivated with (11-mercaptoundecyl)tetra(ethylene glycol) to prevent non-specific bacterial adhesion. Gold surfaces were observed after 15 min incubation. Cells were then incubated with ODN-3 to detach Compound 207 from bacteria membranes.

[8] = target: Alexa 647-modified streptavidin (Streptomyces avidinii, UniProt P22629); experiment: Bacteria-streptavidin interaction; assay type: cell-based; conditions: duplex with ODN-1 on His-tagged bacteria; Alexa-SA 500 nM, 1 h
Method: His-tagged bacterial cells were decorated with a duplex consisting of ODN-1 and Compound 205 duplex according to a similar procedure described above. For binding with streptavidin, cells were incubated with Alexa-647 streptavidin conjugate (500 nM) in PBS×1 for 1 h, and after washing twice with PBS were imaged by fluorescent microscopy. The fluorescent signal was abolished when bacterial cells were treated with ODN-3 (3 μM) for 1 h. The control experiment was performed similarly using bacteria decorated with a duplex containing ODN-1 and the complementary strand.
Methods: His-tagged E. coli were incubated with an ODN-1 molecule and afterwards with a biotin-ODN-2 molecule (Compound 205). Then, the cells were incubated with an Alexa 647-modified streptavidin (FIG. 5A). To verify specificity, the same experiment was performed with an ODN-2 molecule lacking biotin (FIG. 5A). Cells were then incubated with ODN-3 to detach ODN-2 from the cell membranes.

Chain of Alexa 647-modified streptavidin (P22629 25-183): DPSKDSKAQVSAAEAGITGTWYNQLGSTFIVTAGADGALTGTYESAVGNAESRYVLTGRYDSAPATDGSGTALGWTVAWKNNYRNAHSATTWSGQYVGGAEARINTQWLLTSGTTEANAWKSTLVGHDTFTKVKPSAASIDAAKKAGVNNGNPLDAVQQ

Substance: Compound 220: alkyne modified Cy5-labeled ODN2 lacking the CSP binder; SEQ ID NO. 6 (DNA TAGGATCAGGCAGCTATGACGTGAC; DNA, backbone not given here; Cy5 label and alkyne modification, further chemistry not fully specified)
- fluorescent labeling of MDA-MB-435 cells [1]: no labeling was achieved

Substance: Compound 100: X-ODN-1 with tri-NTA His-tag binder, appended with a Cy5 dye; ODN sequence SEQ ID NO. 1 (GCGGCGAGGCAGC; DNA, backbone and methylation of C not given here; Cy5 dye and tri-NTA His-tag binder attached)
- fluorescent decoration of bacteria ([2]; 500 nM in the absence of nickel ions): No fluorescence
- fluorescent decoration of bacteria ([2]; 500 nM with Ni (II)): successfully decorated
- fluorescent decoration of bacteria [3]: No fluorescence
- removal from the cell surface by EDTA [4]: completely removed

Substance: Compound 230: alkyne modified FAM-labeled ODN2 lacking the CSP binder; SEQ ID NO. 6 (DNA TAGGATCAGGCAGCTATGACGTGAC; DNA, backbone not given here; FAM label and alkyne modification, further chemistry not fully specified)
- fluorescent labeling of LNCaP cells [5]: no labeling was achieved

Substance: Compound 201: commercially available ODN-2 bearing a Cy5 dye; SEQ ID NO. 6 (TAGGATCAGGCAGCTATGACGTGAC; DNA, backbone and methylation of C not given here; Cy5 dye attached, commercially available)
- localisation of the label on bacteria (STORM) [6]: only the outer membrane of the bacteria is labeled

Substance: Compound 207: ODN-2 that is appended with a thiol group; SEQ ID NO. 6 (TAGGATCAGGCAGCTATGACGTGAC; DNA, backbone and methylation of C not given here; thiol group appended)
- attachment of thiol-modified bacteria to the gold substrate compared with the control [7]: about 8.5 fold

Substance: Compound 205: biotin-ODN-2 molecule; SEQ ID NO. 6 (TAGGATCAGGCAGCTATGACGTGAC; DNA, backbone and methylation of C not given here; biotin attached)
- fluorescence of decorated bacteria after incubation with Alexa 647-modified streptavidin [8]: became fluorescent
